Laboratory results reported in patent US9708318B2, “Bicyclic heterocycles as FGFR4 inhibitors” (Incyte Corporation, priority 2015, dated 2017).
Like-named read-outs stand apart in the source and are kept apart here.

Key:
FGFR3 enzyme = FGFR3 enzyme (Homo sapiens (Human), UniProt P22607); experiment: FGFR Enzymatic Assay (FRET peptide phosphorylation), FGFR3; type: biochemical; conditions: for FGFR1/FGFR3 IC50 ratio / FGFR4/FGFR3 IC50 ratio: FGFR3 selectivity; for IC50: read-out: FGFR3 IC50
Experimental: (§1) The inhibitor potency of the exemplified compounds was measured in an enzyme assay that measures peptide phosphorylation using FRET measurements to detect product formation. Inhibitors were serially diluted in DMSO and a volume of 0.5 μL was transferred to the wells of a 384-well plate.
(§2) GraphPad prism3 was used to analyze the data.

FGFR1 = FGFR1 (Homo sapiens (Human), UniProt P11362); experiment: FGFR Enzymatic Assay (FRET peptide phosphorylation), FGFR1
Sequence of FGFR1 (P11362 22-822): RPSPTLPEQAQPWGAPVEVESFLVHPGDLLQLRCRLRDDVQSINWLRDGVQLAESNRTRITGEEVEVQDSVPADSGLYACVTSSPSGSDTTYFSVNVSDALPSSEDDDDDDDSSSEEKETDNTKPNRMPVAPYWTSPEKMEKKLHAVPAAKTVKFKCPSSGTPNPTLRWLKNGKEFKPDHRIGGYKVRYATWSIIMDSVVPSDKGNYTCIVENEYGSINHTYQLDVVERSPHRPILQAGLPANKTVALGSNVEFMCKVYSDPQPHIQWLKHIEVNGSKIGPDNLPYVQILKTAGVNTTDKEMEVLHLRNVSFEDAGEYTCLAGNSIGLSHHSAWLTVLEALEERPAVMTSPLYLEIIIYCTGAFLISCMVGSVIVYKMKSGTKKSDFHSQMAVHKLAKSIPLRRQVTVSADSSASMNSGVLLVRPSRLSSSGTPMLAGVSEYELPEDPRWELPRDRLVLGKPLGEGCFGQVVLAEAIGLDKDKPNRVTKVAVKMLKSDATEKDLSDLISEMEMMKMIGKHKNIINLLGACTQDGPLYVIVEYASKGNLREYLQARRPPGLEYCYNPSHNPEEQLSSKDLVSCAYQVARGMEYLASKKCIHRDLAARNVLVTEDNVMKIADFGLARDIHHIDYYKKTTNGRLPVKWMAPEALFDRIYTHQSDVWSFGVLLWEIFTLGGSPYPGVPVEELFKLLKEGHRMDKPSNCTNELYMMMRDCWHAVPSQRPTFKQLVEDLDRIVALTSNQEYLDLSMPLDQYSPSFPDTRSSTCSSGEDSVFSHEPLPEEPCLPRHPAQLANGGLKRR

FGFR4 = FGFR4 (Homo sapiens (Human), UniProt P22455); experiment: FGFR Enzymatic Assay (FRET peptide phosphorylation), FGFR4; type: biochemical
Sequence of FGFR4 (P22455 22-802): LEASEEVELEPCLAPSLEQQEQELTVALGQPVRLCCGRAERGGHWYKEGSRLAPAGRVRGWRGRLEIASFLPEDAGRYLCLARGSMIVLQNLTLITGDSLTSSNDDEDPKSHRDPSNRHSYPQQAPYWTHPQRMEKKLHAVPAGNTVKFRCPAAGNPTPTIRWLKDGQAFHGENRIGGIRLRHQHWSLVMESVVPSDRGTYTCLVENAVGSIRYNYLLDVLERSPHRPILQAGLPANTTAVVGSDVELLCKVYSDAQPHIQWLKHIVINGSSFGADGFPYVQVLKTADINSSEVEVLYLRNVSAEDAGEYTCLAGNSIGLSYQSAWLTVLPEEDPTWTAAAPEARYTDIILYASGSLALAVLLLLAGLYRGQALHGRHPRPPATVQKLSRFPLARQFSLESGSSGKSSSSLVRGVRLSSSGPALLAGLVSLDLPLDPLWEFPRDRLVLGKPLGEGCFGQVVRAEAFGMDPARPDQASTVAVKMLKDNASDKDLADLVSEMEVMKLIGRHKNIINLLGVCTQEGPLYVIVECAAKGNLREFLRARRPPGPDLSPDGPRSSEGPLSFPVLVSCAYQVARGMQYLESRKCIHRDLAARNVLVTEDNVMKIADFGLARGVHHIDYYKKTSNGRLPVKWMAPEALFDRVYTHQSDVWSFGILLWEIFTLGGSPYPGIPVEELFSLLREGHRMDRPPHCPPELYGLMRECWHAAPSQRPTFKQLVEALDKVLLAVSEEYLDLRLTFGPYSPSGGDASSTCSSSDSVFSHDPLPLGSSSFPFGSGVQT
Experimental: as §1
(§3) The enzymes were purchased from Millipore or Invitrogen.
as §2

FGFR2 = FGFR2 (Homo sapiens (Human), UniProt P21802); experiment: FGFR Enzymatic Assay (FRET peptide phosphorylation), FGFR2; type: biochemical
Sequence of FGFR2 (P21802 22-821): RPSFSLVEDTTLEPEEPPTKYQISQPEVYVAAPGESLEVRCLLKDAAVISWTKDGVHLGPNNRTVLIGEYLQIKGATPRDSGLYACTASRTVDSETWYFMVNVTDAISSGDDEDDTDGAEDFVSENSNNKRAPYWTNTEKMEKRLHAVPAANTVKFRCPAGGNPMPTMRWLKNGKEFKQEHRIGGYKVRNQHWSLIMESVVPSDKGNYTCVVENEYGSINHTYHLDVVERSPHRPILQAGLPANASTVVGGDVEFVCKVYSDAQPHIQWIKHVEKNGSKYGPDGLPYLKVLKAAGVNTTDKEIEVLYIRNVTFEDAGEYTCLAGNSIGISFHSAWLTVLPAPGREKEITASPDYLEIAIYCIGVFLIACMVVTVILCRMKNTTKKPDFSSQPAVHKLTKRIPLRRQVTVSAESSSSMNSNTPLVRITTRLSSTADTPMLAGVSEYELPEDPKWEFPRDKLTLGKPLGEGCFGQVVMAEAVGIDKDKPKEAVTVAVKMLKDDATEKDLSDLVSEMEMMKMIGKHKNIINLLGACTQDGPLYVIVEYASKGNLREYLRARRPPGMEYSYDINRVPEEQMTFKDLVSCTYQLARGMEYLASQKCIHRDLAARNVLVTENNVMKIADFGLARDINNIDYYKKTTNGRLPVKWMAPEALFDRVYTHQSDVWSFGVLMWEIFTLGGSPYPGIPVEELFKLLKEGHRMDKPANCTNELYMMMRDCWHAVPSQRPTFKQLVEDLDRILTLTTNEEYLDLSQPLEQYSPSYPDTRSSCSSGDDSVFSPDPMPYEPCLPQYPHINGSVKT
Experimental: as §1, §3, §2

[1] = FGFR1 IC50 (nM), pre-incubated for 4 hours
[2] = pre-incubated for 5 to 10 minutes

Sequence of FGFR3 enzyme (P22607 23-806): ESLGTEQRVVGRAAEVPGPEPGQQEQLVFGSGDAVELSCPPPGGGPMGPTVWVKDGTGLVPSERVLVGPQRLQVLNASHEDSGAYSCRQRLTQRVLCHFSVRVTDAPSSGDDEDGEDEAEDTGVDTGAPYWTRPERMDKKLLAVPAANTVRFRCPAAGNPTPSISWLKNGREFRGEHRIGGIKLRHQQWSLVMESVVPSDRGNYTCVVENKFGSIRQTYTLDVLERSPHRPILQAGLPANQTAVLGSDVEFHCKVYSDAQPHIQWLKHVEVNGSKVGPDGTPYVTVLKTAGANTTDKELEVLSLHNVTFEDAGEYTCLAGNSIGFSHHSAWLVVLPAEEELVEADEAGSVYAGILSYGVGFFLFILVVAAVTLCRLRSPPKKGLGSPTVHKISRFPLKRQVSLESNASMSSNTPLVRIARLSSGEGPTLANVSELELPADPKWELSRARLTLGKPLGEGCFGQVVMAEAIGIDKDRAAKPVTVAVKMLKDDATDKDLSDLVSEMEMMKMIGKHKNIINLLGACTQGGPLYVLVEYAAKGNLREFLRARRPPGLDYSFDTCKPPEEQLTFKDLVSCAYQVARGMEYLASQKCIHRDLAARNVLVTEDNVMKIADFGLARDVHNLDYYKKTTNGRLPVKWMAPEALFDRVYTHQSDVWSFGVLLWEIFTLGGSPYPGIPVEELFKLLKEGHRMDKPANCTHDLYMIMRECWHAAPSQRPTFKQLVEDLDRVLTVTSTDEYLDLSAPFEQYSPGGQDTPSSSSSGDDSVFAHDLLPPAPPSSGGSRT

SMILES | FGFR1/FGFR3 IC50 ratio (FGFR3 enzyme; pre-incubated for 4 hours) | FGFR4/FGFR3 IC50 ratio (FGFR3 enzyme; pre-incubated for 4 hours) | IC50 (FGFR3 enzyme; pre-incubated for 4 hours) [nM] | IC50 (FGFR1; [1]) [nM] | IC50 (FGFR4; pre-incubated for 4 hours) [nM] | IC50 (FGFR2; pre-incubated for 4 hours) [nM] | IC50 (FGFR3 enzyme; [2]) [nM] | IC50 (FGFR1; read-out: FGFR1 IC50, pre-incubated for 5 to 10 minutes) [nM] | IC50 (FGFR1; read-out: FGFR1 IC50, pre-incubated for 4 hours) [nM] | IC50 (FGFR4; [2]) [nM] | IC50 (FGFR2; [2]) [nM] | IC50 (FGFR1; FGFR1 IC50 (nM), pre-incubated for 5 to 10 minutes) [nM]
CCN1C(=O)N(c2c(F)c(OC)cc(OC)c2F)Cc2cnc(-c3ccc(C(=O)NCCO)nc3)cc21 [Example 177, 5-(3-(2,6-difluoro-3,5-dimethoxyphenyl)-1-ethyl-2-oxo-1,2,3,4-tetrahydropyrido[4,3-d]pyrimidin-7-yl)-N-(2-hydroxyethyl)picolinamide] | >5 | >10 | < 10 | 10 to 30 | 10 to 30 | < 10 |  |  |  |  |  | 
CCN1C(=O)N(c2c(F)c(OC)cc(OC)c2F)Cc2cnc(-c3ccc(CC#N)cc3)cc21 [Example 180, 2-(4-(3-(2,6-difluoro-3,5-dimethoxyphenyl)-1-ethyl-2-oxo-1,2,3,4-tetrahydropyrido[4,3-d]pyrimidin-7-yl)phenyl)acetonitrile] | >5 | >5 | < 10 | 30 to 200 | 10 to 30 | < 10 |  |  |  |  |  | 
CCN1C(=O)N(c2c(F)c(OC)cc(OC)c2F)Cc2cnc(-c3ccc(C4(C#N)CCC4)cc3)cc21 [Example 181, 1-(4-(3-(2,6-difluoro-3,5-dimethoxyphenyl)-1-ethyl-2-oxo-1,2,3,4-tetrahydropyrido[4,3-d]pyrimidin-7-yl)phenyl)cyclobutanecarbonitrile] | >5 | >10 | < 10 | 30 to 200 | 30 to 200 | < 10 |  |  |  |  |  | 
CCN1C(=O)N(c2c(F)c(OC)cc(OC)c2F)Cc2cnc(-c3ccc(C4(C#N)CC4)cc3)cc21 [Example 183, 1-(4-(3-(2,6-difluoro-3,5-dimethoxyphenyl)-1-ethyl-2-oxo-1,2,3,4-tetrahydropyrido[4,3-d]pyrimidin-7-yl)phenyl)cyclopropanecarbonitrile] | >3 | >10 | < 10 | 10 to 30 | 30 to 200 | < 10 |  |  |  |  |  | 
CCN1C(=O)N(c2c(F)c(OC)cc(OC)c2F)Cc2cnc(-c3ccc(C(N)=O)nc3)cc21 [Example 184, 5-(3-(2,6-difluoro-3,5-dimethoxyphenyl)-1-ethyl-2-oxo-1,2,3,4-tetrahydropyrido[4,3-d]pyrimidin-7-yl)picolinamide] | >5 | >5 | < 10 | 10 to 30 | 10 to 30 | < 10 |  |  |  |  |  | 
COc1cc(OC)c(F)c(N2Cc3cnc(-c4ccncc4)cc3C3(CC3)C2=O)c1F [Example 185, 2′-(2,6-difluoro-3,5-dimethoxyphenyl)-6′-(pyridin-4-yl)-1′H-spiro[cyclopropane-1,4′-[2,7]naphthyridin]-3′(2′H)-one] | >3 | >3 | < 10 | 10 to 30 | 10 to 30 | < 10 |  |  |  |  |  | 
COc1cc(OC)c(F)c(N2Cc3cnc(-c4cnn(C)c4)cc3C3(CC3)C2=O)c1F [Example 186, 2′-(2,6-difluoro-3,5-dimethoxyphenyl)-6′-(1-methyl-1H-pyrazol-4-yl)-1′,2′-dihydro-3′H-spiro[cyclopropane-1,4′-[2,7]naphthyridin]-3′-one] | >5 | >5 | < 10 |  | < 10 | < 10 | < 10 | < 10 | < 10 | < 10 | < 10 | 
COc1cc(OC)c(F)c(N2Cc3cnc(-c4ccc(C5(C#N)CCC5)nc4)cc3N(Cc3nnc(C)o3)C2=O)c1F [Example 187, 1-(5-{3-(2,6-difluoro-3,5-dimethoxyphenyl)-1-[(5-methyl-1,3,4-oxadiazol-2-yl)methyl]-2-oxo-1,2,3,4-tetrahydropyrido[4,3-d]pyrimidin-7-yl}pyridin-2-yl)cyclobutanecarbonitrile] | >10 | >10 | < 10 | 30 to 200 | 30 to 200 | < 10 | < 10 |  |  | 30 to 200 | < 10 | 10 to 30
COc1cc(OC)c(F)c(N2Cc3cnc(-c4ccc(C5(C#N)CCC5)nc4)cc3N(c3cnn(C)c3)C2=O)c1F [Example 188, 1-{5-[3-(2,6-difluoro-3,5-dimethoxyphenyl)-1-(1-methyl-1H-pyrazol-4-yl)-2-oxo-1,2,3,4-tetrahydropyrido[4,3-d]pyrimidin-7-yl]pyridin-2-yl}cyclobutanecarbonitrile] | >5 | >5 | 10 to 30 | 30 to 200 | 30 to 200 | 10 to 30 |  |  |  |  |  | 
